Experiments:
SGLT2 = target: T1, SGLT2 (Homo sapiens, UniProt P31639); test: SGLT2 activity measurement: 14C-AMG uptake in BHK cells transfected with SGLT2; assay type: cell-based; conditions: AMG 2 mM, 37° C., 90 min
T1 construct: expressed in transfected cells
T1 sequence (P31639 1-672): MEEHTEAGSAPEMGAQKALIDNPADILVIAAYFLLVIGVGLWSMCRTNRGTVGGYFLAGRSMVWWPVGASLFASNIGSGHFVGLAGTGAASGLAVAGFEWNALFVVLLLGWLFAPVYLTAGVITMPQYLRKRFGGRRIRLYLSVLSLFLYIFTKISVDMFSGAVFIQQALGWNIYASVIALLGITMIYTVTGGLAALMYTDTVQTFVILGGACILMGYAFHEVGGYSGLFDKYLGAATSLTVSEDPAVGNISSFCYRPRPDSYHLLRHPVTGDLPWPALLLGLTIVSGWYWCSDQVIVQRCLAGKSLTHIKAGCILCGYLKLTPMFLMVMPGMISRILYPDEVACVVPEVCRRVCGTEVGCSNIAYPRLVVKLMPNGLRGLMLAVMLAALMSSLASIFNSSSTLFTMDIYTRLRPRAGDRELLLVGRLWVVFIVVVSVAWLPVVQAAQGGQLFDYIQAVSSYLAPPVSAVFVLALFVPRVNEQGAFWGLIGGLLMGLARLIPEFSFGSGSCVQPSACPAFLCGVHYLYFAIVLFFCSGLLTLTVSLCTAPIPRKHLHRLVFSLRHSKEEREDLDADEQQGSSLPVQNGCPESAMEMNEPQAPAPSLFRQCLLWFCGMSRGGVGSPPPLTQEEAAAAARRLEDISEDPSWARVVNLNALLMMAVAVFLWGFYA
Text: (§1) The compounds can be tested on their SGLT inhibition properties by means of BHK cells expressing SGLT1 and SGLT2. The production of the cells and the testing can be carried out as described below.
To construct the SGLT2 expression vector (KL224), the SLC5A2 gene (homologous to NM_003041) was amplified from a cDNA library using standard PCR technology and cloned over NheI/XhoI sites into PCI-neo expression vector (Promega) containing neomycin as a selection marker. In this vector, transcription used the enhancer/promoter of human cytomegalovirus and the SV40 polyadenylation signal.
(§2) The final vector KL224 together with an additional vector containing a dihydrofolate reductase gene as a selection marker was introduced into cells. Transfection into BHK21 cells (ATCC CCL-10), cultivated in DMEM medium (GIBCO/BRL), supplemented with 10% foetal calf serum (FCS) and 20 mM glutamine, was carried out using calcium phosphate transfections according to Graham, F. L. and van der Ebb, A. J. (1973), Virology 52: 456 with 5-20 μg of uncut plasmids for 10^7 cells. Stable transfectants were selected in medium containing 1 mg/ml of G418 (GIBCO/BRL) and 20-5000 nM methotrexate as final concentration, where only cells which expressed the neomycin gene and overexpressed the dhfr gene were able to grow. After growth for 2-3 weeks, the cells were cloned (0.5 cells/well) and the clones were investigated for SGLT expression in the radioactive uptake assay.
Principally, uptake of ^14C-α-methyl-D-glucopyranoside (AMG) in, for example, Xenopus oocytes injected with the corresponding cRNA has been described (for example Wen-Sen Lee et al. (1994), J. Biol. Chem. 269, 12032-12039; Guofeng You et al. (1995), J. Biol. Chem. 270, 29365-29371).
(§3) A 96-well cell-based assay was developed and adapted to HTS requirements:
(§4) BHK cells (transfected with SGLT1 or SGLT2) were seeded into 96-well microtitre plates (Cultureplates, Perkin Elmer). After at least 24 h, medium was removed and the cell layer was washed with assay buffer (140 mM NaCl, 2 mM KCl, 1 mM CaCl2, 1 mM MgCl2, 10 mM HEPES, 5 mM Tris, adjusted with 1 M KOH to pH 7.4). After addition of 40 μl of assay buffer, 50 μl of AMG (50 μM for SGLT1 and 2 mM for SGLT2) in the presence or absence of compounds, the cells were incubated in a total volume of 100 μl at 37° C. for 90 min. Supernatant was removed by suction and discarded. The cells were washed and lysed by addition of 50 μl water. After 10 minutes at room temperature 200 μl Microscint 40 (Perkin Elmer) were added. The radioactivity was counted in a Topcount microplate scintillation counter (Perkin Elmer). The non-specific uptake was determined in sodium-free assay buffer (266 mM sucrose, 2 mM KCl, 1 mM CaCl2, 1 mM MgCl2, 10 mM HEPES, 5 mM Tris, adjusted with 1 M KOH to pH 7.4).

SGLT1 = target: T2, SGLT1 (Homo sapiens, UniProt P13866); test: SGLT1 activity measurement: 14C-AMG uptake in BHK cells transfected with SGLT1; assay type: cell-based; conditions: AMG 50 μM, 37° C., 90 min
T2 construct: expressed in transfected cells
T2 sequence (P13866 1-664): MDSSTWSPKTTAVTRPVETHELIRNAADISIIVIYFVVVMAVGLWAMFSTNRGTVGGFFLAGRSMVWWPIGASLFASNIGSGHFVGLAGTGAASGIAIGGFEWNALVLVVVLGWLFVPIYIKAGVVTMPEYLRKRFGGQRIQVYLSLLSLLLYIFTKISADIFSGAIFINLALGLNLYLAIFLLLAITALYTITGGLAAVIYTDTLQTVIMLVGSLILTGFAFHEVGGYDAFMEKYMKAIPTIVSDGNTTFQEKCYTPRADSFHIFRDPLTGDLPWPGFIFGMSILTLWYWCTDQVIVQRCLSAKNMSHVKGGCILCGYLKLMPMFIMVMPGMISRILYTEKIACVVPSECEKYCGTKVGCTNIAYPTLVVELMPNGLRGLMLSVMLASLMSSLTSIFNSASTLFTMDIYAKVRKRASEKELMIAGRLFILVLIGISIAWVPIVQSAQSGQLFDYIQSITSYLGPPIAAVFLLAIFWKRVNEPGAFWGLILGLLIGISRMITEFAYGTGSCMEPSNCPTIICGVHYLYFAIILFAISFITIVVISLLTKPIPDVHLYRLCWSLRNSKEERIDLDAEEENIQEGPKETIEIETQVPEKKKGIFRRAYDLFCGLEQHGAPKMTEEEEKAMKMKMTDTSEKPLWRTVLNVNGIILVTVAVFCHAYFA
Text: as §1
To construct the SGLT1 expression vector (KL225), the SLC5A1 gene (homologous to NM_000343) was amplified from a cDNA library using standard PCR technology and cloned over NheI/XhoI sites into pcDNA3.1 expression vector (Invitrogen) containing neomycin as a selection marker. In this vector, transcription uses the enhancer/promoter of human cytomegalovirus.
as §2, with “KL225” for “KL224”, “assay. […]” for “assay.”
as §3, §4

IC50 (SGLT2) [µM] | IC50 (SGLT1) [µM] | Compound
0.01 to 1 | > 10 | COc1cc(Cl)c(-c2nc3ccc(F)cn3c2Nc2c(C)cccc2C)c(OCC(N)=O)c1 [Compound A197, 2-[2-(Aminocarbonylmethoxy)-4-methoxy-6-chlorophenyl]-3-(2,6-dimethylphenylamino)-6-fluoroimidazo[1,2-a]pyridine]
0.01 to 1 | 1 to 10 | CCc1cc(OC)cc(OCC(N)=O)c1-c1nc2ccc(F)cn2c1Nc1c(C)cccc1Cl [Compound A257, 2-[2-(Aminocarbonylmethoxy)-4-methoxy-6-ethylphenyl]-3-(2-chloro-6-methylphenylamino)-6-fluoroimidazo[1,2-a]pyridine]
0.01 to 1 | > 10 | Cc1cccc(C)c1Nc1c(-c2ccccc2OCC(N)=O)nc2ccccn12 [Compound A4, 2-[2-(Aminocarbonylmethoxy)phenyl]-3-(2,6-di-methylphenylamino)imidazo[1,2-a]pyridine]
1 to 10 | 1 to 10 | COc1cc(C)c(-c2nc3ccc(F)cn3c2Nc2c(F)cc(Br)cc2F)c(OCC(N)=O)c1 [Compound A252, 2-[2-(Aminocarbonylmethoxy)-4-methoxy-6-methylphenyl]-3-(2,6-difluoro-4-bromophenyl-amino)-6-fluoroimidazo[1,2-a]pyridine]
0.01 to 1 | 1 to 10 | CCc1cc(OC)cc(OCC(N)=O)c1-c1nc2ccccn2c1Nc1c(C)cccc1C [Compound A202, 2-[2-(Aminocarbonylmethoxy)-4-methoxy-6-ethylphenyl]-3-(2,6-dimethylphenylamino)-imidazo[1,2-a]pyridine]
0.01 to 1 | 1 to 10 | CCc1cc(OC)cc(OCC(N)=O)c1-c1nc2c(F)cc(F)cn2c1Nc1c(C)cccc1C [Compound A221, 2-[2-(Aminocarbonylmethoxy)-4-methoxy-6-ethylphenyl]-3-(2,6-dimethylphenylamino)-6,8-difluoroimidazo[1,2-a]pyridine]
0.01 to 1 | > 10 | Cc1cccc(C)c1Nc1c(-c2ccc([N+](=O)[O-])cc2OCC(N)=O)nc2ccccn12 [Compound A179, 2-[2-(Aminocarbonylmethoxy)-4-nitrophenyl]-3-(2,6-dimethylphenylamino)imidazo[1,2-a]pyridine]
0.01 to 1 | > 10 | CCc1cc(OC2CCCCO2)cc(OCC(N)=O)c1-c1nc2ccccn2c1Nc1c(C)cccc1C (stereo not drawn) [Compound A166, 2-[2-(Aminocarbonylmethoxy)-4-(tetra-hydropyran-2-yloxy)-6-ethylphenyl]-3-(2,6-dimethylphenylamino)imidazo[1,2-a]pyridine]
> 10 | > 10 | Cc1cccc(C)c1Nc1c(-c2c(C)cc(OCc3ccccc3)cc2OCC(N)=O)nc2ccccn12 [Compound A173, 2-[2-(Aminocarbonylmethoxy)-4-benzyloxy-6-methylphenyl]-3-(2,6-dimethylphenylamino)-imidazo[1,2-a]pyridine]
0.01 to 1 | 1 to 10 | CCc1cccc(OCC(N)=O)c1-c1nc2ccc(F)cn2c1Nc1c(C)cccc1C [Compound A240, 2-[2-(Aminocarbonylmethoxy)-6-ethylphenyl]-3-(2,6-dimethylphenylamino)-6-fluoroimidazo-[1,2-a]pyridine]
0.01 to 1 | > 10 | COc1cc(C)c(-c2nc3c(N)cccn3c2Nc2c(C)cccc2C)c(OCC(N)=O)c1 [Compound A191, 2-[2-(Aminocarbonylmethoxy)-4-methoxy-6-methylphenyl]-3-(2,6-dimethylphenylamino)-8-aminoimidazo[1,2-a]pyridine]
1 to 10 |  | Cc1cccc(C)c1Nc1c(-c2ccccc2OCC(N)=O)nc2cccc(Cl)n12 [Compound A12, 2-[2-(Aminocarbonylmethoxy)phenyl]-3-(2,6-dimethylphenylamino)-5-chloroimidazo[1,2-a]-pyridine]
1 to 10 |  | CCc1cc(OC)cc(OCC(N)=O)c1-c1nc2ccc(C(=O)O)cn2c1Nc1c(C)cccc1C [Compound A223, 2-[2-(Aminocarbonylmethoxy)-4-methoxy-6-ethylphenyl]-3-(2,6-dimethylphenylamino)-6-carboxyimidazo[1,2-a]pyridine]
1 to 10 |  | COc1cc(C)c(-c2nc3c(O)cccn3c2Nc2c(C)cccc2C)c(OCC(N)=O)c1 [Compound A193, 2-[2-(Aminocarbonylmethoxy)-4-methoxy-6-methylphenyl]-3-(2,6-dimethylphenylamino)-8-hydroxyimidazo[1,2-a]pyridine]
1 to 10 |  | Cc1cccc(C)c1Nc1c(-c2c(C)cc(OCCN(C)C)cc2OCC(N)=O)nc2ccccn12 [Compound A119, 2-[2-(Aminocarbonylmethoxy)-4-(2-dimethyl-aminoethoxy)-6-methylphenyl]-3-(2,6-dimethyl-phenylamino)imidazo[1,2-a]pyridine]
1 to 10 |  | COc1cc(OCC(N)=O)c(-c2nc3ccc(F)cn3c2Nc2c(C)cccc2C)cc1OC [Compound A189, 2-[2-(Aminocarbonylmethoxy)-4,5-dimethoxy-phenyl]-3-(2,6-dimethylphenylamino)-6-fluoro-imidazo[1,2-a]pyridine]
